{"source": "patent US9006185B2", "about": "“Use of cell-permeable peptide inhibitors of the JNK signal transduction pathway for the treatment of various diseases” (Xigen Inflammation Ltd., priority 2008, dated 2015)", "key": {"[1]": {"tested_on": "recombinant JNK1, JNK2 and JNK3", "experiment": "Solid phase kinase assay, phosphorylation of c-Jun, ATF2 and Elk1 by recombinant JNKs", "format": "biochemical", "conditions": "GST-Jun (aa 1-73), JNK1, JNK2, JNK3, 0-250 μM dosage study", "description": "The effects of the peptides on JNKs-mediated phosphorylation of their target transcription factors were investigated in vitro. Recombinant and non activated JNK1, JNK2 and JNK3 were produced using a TRANSCRIPTION AND TRANSLATION rabbit reticulocyte lysate kit (Promega) and used in solid phase kinase assays with c-Jun, ATF2 and Elk1, either alone or fused to glutathione-S-transferase (GST), as substrates. Dose response studies were performed wherein L-TAT or L-TAT-IB1(s) peptides (0-25 μM) were mixed with the recombinant JNK1, JNK2, or JNK3 kinases in reaction buffer (20 mM Tris-acetate, 1 mM EGTA, 10 mM p-nitrophenyl-phosphate (pNPP), 5 mM sodium pyrophosphate, 10 mM p-glycerophosphate, 1 mM dithiothreitol) for 20 minutes. The kinase reactions were then initiated by the addition of 10 mM MgCl2 and 5 pCi ^33P-dATP and 1 μg of either GST-Jun (aa 1-89), GST-AFT2 (aa 1-96) or GST-ELK1 (aa 307-428). GST-fusion proteins were purchased from Stratagene (La Jolla, Calif.).\nTen μL of glutathione-agarose beads were also added to the mixture. Reaction products were then separated by SDS-PAGE on a denaturing 10% polyacrylamide gel. Gels were dried and subsequently exposed to X-ray films (Kodak). […] The ability of D-TAT, D-TAT-IB1(s) and L-TAT-IB1(s) peptides (0-250 μM dosage study) to inhibit GST-Jun (aa 1-73) phosphorylation by recombinant JNK1, JNK2, and JNK3 by were analyzed as described above. […]"}, "C57BL/6 mice": {"tested_on": "C57BL/6 mice", "experiment": "Bleomycin induced acute lung inflammation", "format": "in vivo", "from_the_text": "In order to determine the activity of the exemplary all-D retro-inverso IB(s) peptide XG-102 (SEQ ID NO: 11) in the treatment of Chronic Obstructive Pulmonary Disease (COPD) XG-102 (SEQ ID NO: 11) is used in an animal model of Bleomycin induced acute lung inflammation and fibrosis. The protocol of bleomycin induced inflammation and fibrosis has been described before in the literature. The aim of the Experiment was to investigate the effect of XG-102 (SEQ ID NO: 11) by subcutaneous (s.c.) route on neutrophil recruitment in broncho alveolar lavage (BAL) and lung in bleomycin induced inflammation and fibrosis: • at 1 day after a single bleomycin administration (10 mg/kg) • and at day 10 with the development of fibrosis 1) Method and Experimental Approach • The test compound XG-102 (SEQ ID NO: 11) at two doses and vehicle control were given s.c. with a single intranasal administration of bleomycin and mice were analyzed after 1 and 10 days. The animals used in the model were 10 C57BL/6 mice (8 weeks old) per group. The experimental groups included vehicle, 0.001 mg/kg XG-102 (SEQ ID NO: 11) and 0.1 mg/kg XG-102 (SEQ ID NO: 11), and the treatment consisted of repeated sub-cutaneous administration of XG-102 (SEQ ID NO: 11), prior to bleomycin administration then every 3 days. Acute lung inflammation at 24 h was monitored by BAL lavage, cytology, cell counts, and lung myeloperoxidase activity. The effect of the compound was compared with vehicle controls. Lung fibrosis was assessed histologically using hematoxylin and eosin staining at day 10 after the single dose of bleomycin. 1.1) Bleomycin Administration • Bleomycin sulfate in saline (10 mg/kg body weight) from Belton Laboratories (Montrouge, France) or saline were given through the airways by nasal instillation in a volume of 40 μL under light ketamine-xylasine anesthesia. The groups for Bleomycin administration for both bleomycin induced inflammation and fibrosis included: Vehicle, 0.001 mg/kg XG-102 (SEQ ID NO: 11) and 0.1 mg/kg XG-102 (SEQ ID NO: 11). The route for bleomycin induced inflammation was subcutaneous (s.c.) route, and administration occurred as a single dose. The route for bleomycin induced fibrosis was subcutaneous (s.c.) route, and administration occurred 3 times in 10 days. 1.2) Bronchioalveolar Lavage Fluid (BAL F) • After incision of the trachea, a plastic cannula was inserted and airspaces were washed using 0.3 ml of PBS solution, heated to 37° C. The samples collected were dispatched in 2 fractions: the first one (1 ml corresponding to the 2 first lavages) was used for mediator measurement and the second one for the cell determination (4 ml). The first fraction was centrifuged (600 g for 10 min) and supernatant was fractionated and kept at −80° C. until mediator determination. The cell pellet was then resuspended in 0.4 ml sterile NaCl, 0.9%, and pooled with the second fraction and was used for cell counts. […] 1.4) Cell Count and Determination • Total cell count was determined in BAL fluid using a Malassez hemocytometer. […] 1.5) TNF Measurement • TNF level in BALF was determined using ELISA assay kits (Mouse DuoSet, R&D system, Minneapolis, USA) according to manufacturer's instructions. […] 1.6) MPO-Measurement • MPO-levels were measured upon administration of XG-102. […]"}}, "note": "“Also recorded” adds a separate entry of the source.", "data": [{"smiles": "CC(C)C[C@@H](NC(=O)[C@@H](Cc1ccccc1)NC(=O)[C@H]1CCCN1C(=O)[C@@H](CCC(N)=O)NC(=O)[C@H](NC(=O)[C@H]1CCCN1C(=O)[C@@H](CCCNC(=N)N)NC(=O)[C@@H](CO)NC(=O)[C@@H](CCC(N)=O)NC(=O)[C@H](N)CC(=O)O)C(C)C)C(=O)N[C@H](CC(N)=O)C(=O)N[C@H](CC(C)C)C(=O)N[C@@H](C(=O)N[C@@H](C(=O)N1CCC[C@@H]1C(=O)N[C@H](CCCNC(=N)N)C(=O)N[C@H](CCCCN)C(=O)N1CCC[C@@H]1C(=O)N[C@H](CCCNC(=N)N)C(=O)N1CCC[C@@H]1C(=O)N1CCC[C@@H]1C(=O)N[C@H](CCCNC(=N)N)C(=O)N[C@H](CCCNC(=N)N)C(=O)N[C@H](CCCNC(=N)N)C(=O)N[C@H](CCC(N)=O)C(=O)N[C@H](CCCNC(=N)N)C(=O)N[C@H](CCCNC(=N)N)C(=O)N[C@H](CCCCN)C(=O)N[C@H](CCCCN)C(=O)N[C@H](CCCNC(=N)N)C(=O)NCC(=O)O)[C@H](C)O)[C@H](C)O", "note": "[XG-102]", "values": [{"measurement": "efficiency in decreasing JNK-mediated phosphorylation of c-Jun, fold less than L-TAT-IB1(s)", "setting": "[1]", "result": "10-20 fold"}, {"measurement": "neutrophil recruitment and other cell types in bronchioalveolar space", "setting": "C57BL/6 mice; 0.001 mg/kg s.c., single dose, 1 day", "result": "has no effect on neutrophil recruitment or other cell types"}, {"measurement": "neutrophil recruitment and total cells in bronchioalveolar lavage space", "setting": "C57BL/6 mice; 0.1 mg/kg s.c., single dose, 1 day", "result": "reduces significantly the neutrophil recruitment and the number of total cells recruited"}, {"measurement": "histology, inflammatory cell accumulation", "setting": "C57BL/6 mice; acute inflammation study", "result": "a decrease of the inflammatory cell accumulation in the peribronchial space"}, {"measurement": "MPO levels in the lung", "setting": "C57BL/6 mice; s.c., MPO not significantly induced after bleomycin", "result": "only little effect on the MPO levels in the lung; also recorded: no effect on the MPO levels in the lung"}, {"measurement": "TNF level in BALF", "setting": "C57BL/6 mice; s.c., TNF levels very low after BLM", "result": "a trend to reduction of the TNF level in BALF"}]}]}
